Results taken from patent US20160089379A1, “TREATMENT OF NEUROLOGICAL AND OTHER DISORDERS” (PALMAYA PTY LTD, priority 2013, published 2016).
Converted amounts (≈) assume the structure as drawn. Like-named read-outs stand apart in the source and are kept apart here.

Legend:
[1] = test system: patients; assay: Naltrexone therapy in approximately 6,000 patients; assay type: in vivo, human
Experimental: Our experiments in approximately 6,000 patients treated with naltrexone (release rate of between 0.5 to 20 mg/day) or 1 to 100 micrograms per hour, with similar release rates of antagonists, has confirmed improvements in multiple sclerosis in our patients and also in crohn's disease which are both inflammatory conditions. […] These experiments showing blocking of dopamine is why the combination of right hand isomer of naltrexone and flumazenil in the dose range described is the ideal treatment to arrest multiple sclerosis.

[2] = test system: idiopathic hypersomnia patients; assay: Treatment of idiopathic hypersomnia patients with flumazenil; assay type: in vivo, human
Text: We tested this model of disease again in two idiopathic hypersomnia patients. Both individuals had severe sleep drunkenness for over 18 months (Patient 1) and for over 13 years (Patient 2). We believe this illness to be due to the damage in the balance between an initial insult that had caused hyperpolarisation of cells which made them nonresponsive to benzodiazepine, as the prolonged presence of high levels of endogenous benzodiazepines continues long after the initial insult or disease. The homeostatic mechanisms that balance the delivery of dopamine to their cells responded to the damaged benzodiazepine receptors by maintaining the endogenous benzodiazepines at a high level in order to get some benzodiazepines to their cells. This inadequate dopamine delivered by response to valium was not occurring when we met these patients and so their cells remained unable to conduct currents and also unable to recover from their hyperpolarisation in the absence of dopamine.
[…]. Patient 2 was treated in a similar way.
This is in contrast with an existing patient treated by the Emery Research Group, who indicated a dose of approximately 2 mg per body mass unit per day would be required. For P1, with a BMI of 34 this would equate to 68 mg per day, 17 times what they were given during the infusion.
During the infusion and the two weeks prior, P1 kept a record of sleepiness and mood, upon awaking, mid-awake and pre-sleep on a scale of 0-10. For sleepiness 0 represented an unavoidable need to sleep, while 10 is feeling awake and rested. Similarly for mood, 0 represents rock bottom, while 10 was chirpy, happy and cheerful.

[3] = test system: patients
[4] = test system: release of dopamine; details: rats; combination of flumazenil and benzodiazepines; cited from earlier work
[5] = Solubility of flumazenil; assay type: physicochemical
[6] = test system: human adult volunteers; assay: Infusion of flumazenil for treatment of benzodiazepine addiction; assay type: in vivo
[7] = test system: patient suffering from Parkinson's disease; assay: Finger tap test (one minute) and L-dopa intake in a Parkinson's disease patient; assay type: in vivo, human; details: for Tapping score: flumazenil 170 micrograms per hour plus 10 mg of valium per day
Experimental: A study was conducted to test the theory that the loss of function of neuronal cells from hyperpolarisation in a patient suffering from Parkinson's disease could be reversed, improved or corrected. […] In addition, the patient was also given 10 mg of valium per day to facilitate the “sick cells” in the substantia niagra region of the brain stem, being able to produce their own dopamine again.
The patient was asked to perform the “finger tap test”, which is an indicator of the extent of Parkinson's disease. Briefly, the patient is asked to tap an index finger as fast as possible for one (1) minute (CNS tap test). The greater the number of taps per minute, the greater the improvement.
The following results were observed over four hours of treatment to the patient.

[8] = test system: epilepsy patient; assay: Treatment of epilepsy patient with flumazenil; assay type: in vivo, human; details: 170 micrograms per hour, day following treatment
[9] = test system: patients; details: intravenous or oral bolus doses as high as 20,000 micrograms; work of others; cited from earlier work
[10] = release rate of between 0.5 to 20 mg/day or 1 to 100 micrograms per hour
[11] = P1, 4 day subcutaneous infusion, 4 mg per day
[12] = P1, post treatment, scale of 0-10, 10 is feeling awake and rested
[13] = P1, post treatment, scale of 0-10, 10 was chirpy, happy and cheerful
[14] = P2, before dose was doubled to 8 mg/day

Structure (SMILES): O=C1CC[C@@]2(O)[C@H]3Cc4ccc(O)c5c4[C@@]2(CCN3CC2CC2)[C@H]1O5 [naltrexone]
- crohn's disease [1, 10]: improvements
- multiple sclerosis [1, 10]: improvements

Structure (SMILES): CCOC(=O)c1ncn2c1CN(C)C(=O)c1cc(F)ccc1-2 [flumazenil]
- sleep drunkenness ([2]; 4 mg per day, within 3 days, both patients): full relief
- concentration, memory and attention span [2, 11]: marked improvement
- symptoms of IH reported during the infusion [2, 11]: not having experienced any sleep drunkenness, excessive day time sleepiness, heart palpitations or cold hands and feet
- Stanford Sleepiness Scale (SSS) score ([2]; P1, at completion of flumazenil treatment, 6 out of a possible 8 at the time of treatment): 3
- Epworth Sleepiness Scale (ESS) score ([2]; P1, at completion of flumazenil treatment, 21 of a possible 24 at the time of treatment): 4
- Awaking sleepiness [2, 12]: 6.2 ± 0.8
- Mid-awake sleepiness [2, 12]: 6.8 ± 0.5
- Pre-sleep sleepiness [2, 12]: 5.8 ± 1.7
- Awaking mood [2, 13]: 8.8 ± 0.4
- Mid-awake mood [2, 13]: 8.8 ± 0.5
- Pre-sleep mood [2, 13]: 8.5 ± 0.6
- mental clarity of second patient (P2) [2, 14]: increase in mental clarity
- tiredness and napping of second patient (P2) [2, 14]: still been very tired and napping through the day
- health status of Patient 1 ([2]; flumazenil infusion at 2 mg/day by implant, within 7 days): full return to normal health
- calmness and the ability to relate to others ([3]; 20 to 300 microgram per hour, subcutaneous and intravenous infusions, within 3 days (5 days at the lower end)): significant improvement
- extent of changes in those with depression, anxiety and fear ([3]; at the 20 mg/hour end of the scale): less
- extent of changes in those with depression, anxiety and fear ([3]; beyond 40 mg/hour): very marked
- confidence in those with depression, anxiety and fear ([3]; during the infusion treatment): showed a confidence in themselves
- depression and anxiety symptoms in patients previously diagnosed with psychosis ([3]; more than 20 of the 500): lifted in their depression and in their anxiety symptoms
- alertness during infusion treatment ([3]; most of the 500): an increase in problem solving and reported a decrease in distractibility
- sleep ([3]; nearly all of the 500, one patient reported difficulty getting to sleep): return to natural sleep
- release of dopamine [4]: enhance the release of dopamine
- solubility ([5]; pH 1.2, simulated gastric fluid): 3000 µg/mL (≈ 9.89 mM)
- solubility ([5]; pH 7.5, aqueous buffer, pH of 7.5): 600 µg/mL (≈ 1.98 mM)
- relief in those who had damaged their benzodiazepine receptors ([6]; 1-8 mg of flumazenil per day, usually within hours of commencing): gained relief
- symptoms treated by benzodiazepines ([6]; flumazenil infusions, within hours, maintained for up to 3 to 4 days or longer): marked improvement
- safety of long term flumazenil in humans ([6]; more than 500 patients, intravenous, subcutaneous and implant delivery): safe for use in human beings
- Tapping score ([7]; 0 hours from infusion (baseline)): 40 taps per minute
- Tapping score ([7]; 2 hours from infusion): 50 taps per minute
- Tapping score ([7]; 3 hours from infusion): 60 taps per minute
- Tapping score ([7]; 4 hours from infusion): 73 taps per minute
- L-dopa medication dosage after commencing infusion treatment ([7]; reduced from 1500 mg/day within days of commencing infusion, with valium): 250 mg/day
- tolerance of light (light activating peti mal episodes) [8]: able to go for a walk in the sun for an hour with no hat or sunglasses
- fits (peti mal episodes) ([8]; none since (48 hour), previously at least 4-5 times each day): no fits
- adverse effects of bolus doses [9]: anxiety attacks or fits

Structure (SMILES): O=C1CC[C@@]2(O)[C@H]3Cc4ccc(O)c5c4[C@@]2(CCN3CC2CC2)[C@H]1O5 (single isomer, unassigned) [L isomer of naltrexone]
- dopamine effects ([1]; human, in vivo): reduces dopamine effects
